Results from US20200016159A1, “N3-CYCLICALLY SUBSTITUTED THIENOURACILS AND USE THEREOF” (Bayer Aktiengesellschaft, priority 2016, published 2020).

Biological target: T1, human adenosine A2b receptor (Homo sapiens, UniProt P29275)
T1 sequence (P29275 1-332): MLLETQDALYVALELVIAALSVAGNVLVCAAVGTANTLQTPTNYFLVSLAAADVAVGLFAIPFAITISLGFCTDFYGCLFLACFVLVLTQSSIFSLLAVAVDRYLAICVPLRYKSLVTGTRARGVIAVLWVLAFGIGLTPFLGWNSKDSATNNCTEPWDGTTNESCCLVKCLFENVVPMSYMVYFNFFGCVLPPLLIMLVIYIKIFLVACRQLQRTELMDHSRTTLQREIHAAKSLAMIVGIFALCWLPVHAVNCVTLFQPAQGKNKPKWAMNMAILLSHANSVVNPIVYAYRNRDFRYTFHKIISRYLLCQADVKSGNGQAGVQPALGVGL
Assay: Cellular in vitro reporter gene test for A2b receptor activity (antagonism of NECA)
Format: cell-based
Design: expressed in transfected cells; host or cells: CHO-K1 (Chinese hamster ovary) with CRE-luciferase reporter
Conditions: recombinant CHO-K1 cells, CRE-luciferase reporter, co-incubation with EC50 concentration of NECA, 3 hours
In short: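 Antagonism measured as block of NECA-induced, cAMP/CRE-dependent luciferase expression in recombinant A2b CHO-K1 cells. NECA used at the EC50 set in a pre-experiment on each test day; luminescence detected after 3 h. Reported as IC50, partly averaged and rounded to two significant figures.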

Structure (SMILES)	IC50
COC(=O)N=C1NCCN1Cc1sc2c(c1C)c(=O)n(C1CC1C)c(=O)n2CCOC(F)(F)F (single isomer, unassigned) [Example 269, Methyl [1-({5-methyl-3-(2-methylcyclopropyl)-2,4-dioxo-1-[2-(trifluoromethoxy)ethyl]-1,2,3,4-tetrahydrothieno[2,3-d]pyrimidin-6-yl}methyl)imidazolidin-2-ylidene]carbamate]	2 nM
Cc1c(Cn2cc[nH]c2=O)sc2c1c(=O)n(C1CC1C)c(=O)n2CCOC(F)(F)F (single isomer, unassigned) [Example 271, 5-Methyl-3-(2-methylcyclopropyl)-6-[(2-oxo-2,3-dihydro-1H-imidazol-1-yl)methyl]-1-[2-(trifluoromethoxy)ethyl]thieno[2,3-d]pyrimidine-2,4(1H,3H)-dione]	1.4 nM
Cc1c(Cn2cc[nH]c2=O)sc2c1c(=O)n(C1CC1C)c(=O)n2CCOC(F)(F)F (single isomer, unassigned) [Example 272, 5-Methyl-3-(2-methylcyclopropyl)-6-[(2-oxo-2,3-dihydro-1H-imidazol-1-yl)methyl]-1-[2-(trifluoromethoxy)ethyl]thieno[2,3-d]pyrimidine-2,4(1H,3H)-dione]	1 nM
Cc1c(Cn2[nH]ccc2=O)sc2c1c(=O)n(C1CC1C)c(=O)n2CCOC(F)(F)F (single isomer, unassigned) [Example 274, 5-Methyl-3-(2-methylcyclopropyl)-6-[(5-oxo-2,5-dihydro-1H-pyrazol-1-yl)methyl]-1-[2-(trifluoromethoxy)ethyl]thieno[2,3-d]pyrimidine-2,4(1H,3H)-dione]	86 nM
Cc1c(Cn2[nH]ccc2=O)sc2c1c(=O)n(C1CC1C)c(=O)n2CCOC(F)(F)F (single isomer, unassigned) [Example 275, 5-Methyl-3-(2-methylcyclopropyl)-6-[(5-oxo-2,5-dihydro-1H-pyrazol-1-yl)methyl]-1-[2-(trifluoromethoxy)ethyl]thieno[2,3-d]pyrimidine-2,4(1H,3H)-dione]	63 nM
Cc1c(Cn2nc[nH]c2=O)sc2c1c(=O)n(C1CC1C)c(=O)n2CCOC(F)(F)F (single isomer, unassigned) [Example 277, 5-Methyl-3-(2-methylcyclopropyl)-6-[(5-oxo-4,5-dihydro-1H-1,2,4-triazol-1-yl)methyl]-1-[2-(trifluoromethoxy)ethyl]thieno[2,3-d]pyrimidine-2,4(1H,3H)-dione]	3.9 nM
Cc1c(Cn2nc[nH]c2=O)sc2c1c(=O)n(C1CC1C)c(=O)n2CCOC(F)(F)F (single isomer, unassigned) [Example 278, 5-Methyl-3-(2-methylcyclopropyl)-6-[(5-oxo-4,5-dihydro-1H-1,2,4-triazol-1-yl)methyl]-1-[2-(trifluoromethoxy)ethyl]thieno[2,3-d]pyrimidine-2,4(1H,3H)-dione]	1.6 nM
Cc1c(CN2CCNC2=O)sc2c1c(=O)n(C1CC1C)c(=O)n2CCSC(F)(F)F (single isomer, unassigned) [Example 280, 5-Methyl-3-(2-methylcyclopropyl)-6-[(2-oxoimidazolidin-1-yl)methyl]-1-{2-[(trifluoromethyl)sulfanyl]ethyl}thieno[2,3-d]pyrimidine-2,4(1H,3H)-dione]	3.4 nM
Cc1c(CN2CCNC2=O)sc2c1c(=O)n(C1CC1C)c(=O)n2CCSC(F)(F)F (single isomer, unassigned) [Example 281, 5-Methyl-3-(2-methylcyclopropyl)-6-[(2-oxoimidazolidin-1-yl)methyl]-1-{2-[(trifluoromethyl)sulfanyl]ethyl}thieno[2,3-d]pyrimidine-2,4(1H,3H)-dione]	2.1 nM
Cc1c(CN2CCNC2=O)sc2c1c(=O)n([C@H]1C[C@@H]1C)c(=O)n2CC1CCO1 (single isomer, unassigned) [Example 283]	25 nM
Cc1c(CN2CCNC2=O)sc2c1c(=O)n([C@H]1C[C@@H]1C)c(=O)n2CC1CCO1 (single isomer, unassigned) [Example 284]	8.6 nM
Cc1c(CN2CCNC2=O)sc2c1c(=O)n(C1CC1C)c(=O)n2C[C@H]1CCCO1 (single isomer, unassigned) [Example 287]	2.8 nM
Cc1c(CN2CCNC2=O)sc2c1c(=O)n(C1CC1C)c(=O)n2C[C@H]1CCCO1 (single isomer, unassigned) [Example 288]	47 nM
Cc1c(CN2CCNC2=O)sc2c1c(=O)n(C1CC1C)c(=O)n2CC1CCOC1 (single isomer, unassigned) [Example 290, 5-Methyl-3-(2-methylcyclopropyl)-6-[(2-oxoimidazolidin-1-yl)methyl]-1-(tetrahydrofuran-3-ylmethyl)thieno[2,3-d]pyrimidine-2,4(1H,3H)-dione]	270 nM
Cc1c(CN2CCNC2=O)sc2c1c(=O)n(C1CC1C)c(=O)n2CC1CCOC1 (single isomer, unassigned) [Example 291, 5-Methyl-3-(2-methylcyclopropyl)-6-[(2-oxoimidazolidin-1-yl)methyl]-1-(tetrahydrofuran-3-ylmethyl)thieno[2,3-d]pyrimidine-2,4(1H,3H)-dione]	19 nM

Further lines, results first:

IC50	Structure (SMILES)
150 nM	Cc1c(CN2CCNC2=O)sc2c1c(=O)n(C1CC1C)c(=O)n2CC1CCOC1 (single isomer, unassigned) [Example 292, 5-Methyl-3-(2-methylcyclopropyl)-6-[(2-oxoimidazolidin-1-yl)methyl]-1-(tetrahydrofuran-3-ylmethyl)thieno[2,3-d]pyrimidine-2,4(1H,3H)-dione]
12 nM	Cc1c(CN2CCNC2=O)sc2c1c(=O)n(C1CC1C)c(=O)n2CC1CCOC1 (single isomer, unassigned) [Example 293, 5-Methyl-3-(2-methylcyclopropyl)-6-[(2-oxoimidazolidin-1-yl)methyl]-1-(tetrahydrofuran-3-ylmethyl)thieno[2,3-d]pyrimidine-2,4(1H,3H)-dione]
120 nM	COCCn1c(=O)n(C2CC2C(F)(F)F)c(=O)c2c(C)c(CN3CCNC3=O)sc21 (single isomer, unassigned) [Example 295, 1-(2-Methoxyethyl)-5-methyl-6-[(2-oxoimidazolidin-1-yl)methyl]-3-[2-(trifluoromethyl)cyclopropyl]thieno[2,3-d]pyrimidine-2,4(1H,3H)-dione]
16 nM	COCCn1c(=O)n(C2CC2C(F)(F)F)c(=O)c2c(C)c(CN3CCNC3=O)sc21 (single isomer, unassigned) [Example 296, 1-(2-Methoxyethyl)-5-methyl-6-[(2-oxoimidazolidin-1-yl)methyl]-3-[2-(trifluoromethyl)cyclopropyl]thieno[2,3-d]pyrimidine-2,4(1H,3H)-dione]
1800 nM	COCCn1c(=O)n(C2CC2C(F)(F)F)c(=O)c2c(C)c(Cn3nc[nH]c3=O)sc21 (single isomer, unassigned) [Example 298, 1-(2-Methoxyethyl)-5-methyl-6-[(5-oxo-4,5-dihydro-1H-1,2,4-triazol-1-yl)methyl]-3-[2-(trifluoromethyl)cyclopropyl]thieno[2,3-d]pyrimidine-2,4(1H,3H)-dione]
220 nM	COCCn1c(=O)n(C2CC2C(F)(F)F)c(=O)c2c(C)c(Cn3nc[nH]c3=O)sc21 (single isomer, unassigned) [Example 299, 1-(2-Methoxyethyl)-5-methyl-6-[(5-oxo-4,5-dihydro-H-1,2,4-triazol-1-yl)methyl]-3-[2-(trifluoromethyl)cyclopropyl]thieno[2,3-d]pyrimidine-2,4(1H,3H)-dione]
